According to patent US20250360167A1 (Keryx Biopharmaceuticals, Inc., priority 2013, published 2025):

How the values were obtained:
Assay type in all cases: in vivo, human
TSAT = assay: Phase 2 trial (Example 2): TSAT
From the text: Change in serum phosphorus, ferritin and TSAT levels from baseline to end of treatment after 12 weeks are the primary endpoints.
The co-primary efficacy endpoints of this trial were the mean changes in serum phosphorus and TSAT from baseline to the end of the 12-week treatment period versus placebo in the ITT group.

serum phosphorus = assay: Phase 3 trial (Example 1), four-week placebo-controlled Efficacy Assessment Period: serum phosphorus; details: for Serum Phosphorus, Mean / Serum Phosphorus, Median: Efficacy Assessment Period; for Serum Phosphorus, Mean / Serum Phosphorus, Median / Serum Phosphorus, LS Mean / Serum Phosphorus, Treatment Differences, LS Mean (KRX-0502) − LS Mean (Placebo), (SE) / Serum Phosphorus, Change from Baseline, Mean / Serum Phosphorus, Change from Baseline, Median: Table 14; for Serum Phosphorus, Change from Baseline, Mean / Serum Phosphorus, Change from Baseline, Median: Week-52 baseline
From the text: This trial was a three-period, multicenter, safety and efficacy clinical trial.
Period 3 (Efficacy Assessment Period). Following the Safety Assessment Period, those patients randomized to treatment with ferric citrate entered a four-week, randomized, open-label, placebo-controlled Efficacy Assessment Period.
Serum phosphorus and calcium were checked at Visit 5 (Week 1), and every two weeks during the first 12 weeks after Visit 4 (Randomization Visit), and monthly for the rest of the Safety Assessment Period. During the Efficacy Assessment Period, serum phosphorus and calcium were drawn weekly. These values guided study drug administration. While on study drug, the use of other phosphate binders was not permitted. […] The titration of calcium acetate and sevelamer carbonate throughout the 52-week Safety Assessment Period were according to the current package inserts for these agents and/or at the discretion of the site PI.
Serum phosphorus and calcium were performed at Screening (Visit 0); weekly during the Washout Period after Visit 1 (Week −2); at Visit 4 (Randomization Visit); at Visits 5 (Week 1), 6 (Week 2), 7 (Week 4), 8 (Week 6), 9 (Week 8), 10 (Week 10), 11 (Week 12), 12 (Week 16), 13 (Week 20), 14 (Week 24), 15 (Week 28), 16 (Week 32), 17 (Week 36), 18 (Week 40), 19 (Week 44), 20 (Week 48), and 21 (Week 52) of the 52-week Safety Assessment Period; and at Visits 22 (Week 53), 23 (Week 54), 24 (Week 55) and 25 (Week 56) of the Efficacy Assessment Period.
There were two unique and distinct baseline assessments. The baseline for the Safety Assessment Period was the Randomization Visit (Visit 4) and was defined as “Week-O-baseline.” The baseline for the Efficacy Assessment Period was the last visit of the Safety Assessment Period (Visit 21, Week 52) and was defined as “study-baseline.”
The primary efficacy variable was analyzed via an ANCOVA model with treatment as the fixed effect and study-baseline as the covariate. Between-treatment differences were estimated and two-sided 95% confidence intervals for the differences were presented.

[1] = system: intact fibroblast growth factor 23 (FGF23); assay: Phase 2 trial (Example 2): intact FGF-23; details: n = 63
Description: Change in calcium x phosphorus product, serum calcium, estimated glomerular filtration rate (eGFR), urinary phosphorus, bicarbonate levels, serum iron, UIBC, TIBC, iPTH, and intact fibroblast growth factor 23 (FGF23) from baseline (Visit 4, Week 0) to the end of treatment (Visit 11, Week 12) are also assessed as secondary endpoints.
The key secondary endpoints of the study were the mean changes in ferritin, hemoglobin and FGF-23 from baseline to the end of the 12-week treatment period versus placebo in the ITT group.

iron (+3), x (1, 2, 3-propanetricarboxylic acid, 2-hydroxy-), y (H2O) [KRX-0502]
TSAT, Baseline (TSAT; Baseline, ITT group, n = 72): 22% | TSAT, End of Treatment (Week 12) (TSAT; Week 12, last observation carried forward, ITT group, n = 72): 32% | ending TSAT level at Visit 11 (Week 12) (TSAT; sample size assumption): approximately 25% | Mean Serum Phosphorus (serum phosphorus; End of Treatment (Week 56), LOCF, Table A): 4.9 mg/dL | Serum Phosphorus, Mean (serum phosphorus; Week 52 Baseline): 5.16 | Serum Phosphorus, Median (serum phosphorus; Week 52 Baseline): 5.10 | Serum Phosphorus, LS Mean (serum phosphorus; Week 53, ANCOVA): 4.92 | Serum Phosphorus, Mean (serum phosphorus; Week 53): 4.90 | Serum Phosphorus, Median (serum phosphorus; Week 53): 4.95 | Serum Phosphorus, Treatment Differences, LS Mean (KRX-0502) − LS Mean (Placebo), (SE) (serum phosphorus; Week 53): −1.73 (0.21) | Serum Phosphorus, Change from Baseline, Mean (serum phosphorus; Week 53): −0.31 | Serum Phosphorus, Change from Baseline, Median (serum phosphorus; Week 53): −0.30 | Serum Phosphorus, LS Mean (serum phosphorus; Week 54, ANCOVA): 4.80 | Serum Phosphorus, Mean (serum phosphorus; Week 54): 4.78 | Serum Phosphorus, Median (serum phosphorus; Week 54): 4.70 | Serum Phosphorus, Treatment Differences, LS Mean (KRX-0502) − LS Mean (Placebo), (SE) (serum phosphorus; Week 54): −2.08 (0.22) | Serum Phosphorus, Change from Baseline, Mean (serum phosphorus; Week 54): −0.36 | Serum Phosphorus, Change from Baseline, Median (serum phosphorus; Week 54): −0.40 | Serum Phosphorus, LS Mean (serum phosphorus; Week 55, ANCOVA): 4.76 | Serum Phosphorus, Mean (serum phosphorus; Week 55): 4.75 | Serum Phosphorus, Median (serum phosphorus; Week 55): 4.60 | Serum Phosphorus, Treatment Differences, LS Mean (KRX-0502) − LS Mean (Placebo), (SE) (serum phosphorus; Week 55): −2.18 (0.23) | Serum Phosphorus, Change from Baseline, Mean (serum phosphorus; Week 55): −0.41 | Serum Phosphorus, Change from Baseline, Median (serum phosphorus; Week 55): −0.50 | Serum Phosphorus, LS Mean (serum phosphorus; Week 56, ANCOVA): 4.94 | Mean Serum Phosphorus, Least Squares (LS) Mean Difference from Placebo (serum phosphorus; Week 56, ANCOVA, Table A): -2.3 mg/dL | Serum Phosphorus, Mean (serum phosphorus; Week 56): 4.92 | Serum Phosphorus, Median (serum phosphorus; Week 56): 4.60 | Serum Phosphorus, Treatment Differences, LS Mean (KRX-0502) − LS Mean (Placebo), (SE) (serum phosphorus; Week 56): −2.28 (0.23) | Serum Phosphorus, Change from Baseline, Mean (serum phosphorus; Week 56): −0.23 | Serum Phosphorus, Change from Baseline, Median (serum phosphorus; Week 56): −0.50 | Mean Serum Phosphorus (serum phosphorus; baseline Week 52, Table A): 5.2 mg/dL | Mean Serum Phosphorus, Change from Baseline at Week 56 (serum phosphorus; baseline Week 52, Table A): -0.3 mg/dL | Mean Intact FGF-23, Baseline ([1]; Baseline): 319 pg/mL | Mean Intact FGF-23, End of Treatment (Week 12) ([1]; Week 12, last observation carried forward): 200 pg/mL
